In US6960568B2, “Nucleosides and related processes, pharmaceutical compositions and methods” (Yale University, priority 2002, dated 2005):

What was measured:
B16F10 melanoma cells = test: Cytotoxicity against B16F10 melanoma cell line in vitro; type: cell-based; conditions: Mus musculus, B16-F10; drug concentration required to inhibit cancer cell replication by 50%; tested up to 100 μM
Description: (§1) The synthesized compounds were evaluated in vitro for their cytotoxicity against the L1210 and P388 leukemias, the CCRF-CEM lymphoblastic leukemia, and the B16F10 melanoma cell lines and the results are shown in Table 2.

[1] = test system: L1210, P388, CCRF-CEM and B16F10 cells; test: Cytotoxicity against the panel of neoplastic cell lines, summary in words; type: cell-based; conditions: concentrations up to 100 μM
Description: as §1

P388 leukemia cells = test: Cytotoxicity against P388 leukemia cell line in vitro; type: cell-based; conditions: Mus musculus, drug concentration required to inhibit cancer cell replication by 50%, tested up to 100 μM
Description: as §1

L1210 leukemia cells = test: Cytotoxicity against L1210 leukemia cell line in vitro; type: cell-based; conditions: Mus musculus, drug concentration required to inhibit cancer cell replication by 50%, tested up to 100 μM
Description: as §1

[2] = test system: CCRF-CEM lymphoblastic leukemia cells; test: Cytotoxicity against CCRF-CEM lymphoblastic leukemia cell line in vitro; type: cell-based; conditions: Homo sapiens, drug concentration required to inhibit cancer cell replication by 50%, tested up to 100 μM
Description: as §1

hepatitis B virus (HBV) = test: Antiviral assay against hepatitis B virus in vitro; type: cell-based; conditions: maximum tested concentration 10 μM
Description: Antiviral assays were performed against hepatitis B virus (HBV) and human immunodeficiency virus (HIV-IIIB) in vitro as previously described. Lin, T. S.; Luo, M. Z.; Liu, M. C.; Pai, S. B.; Dutschman, G. E.; Cheng, Y. C., J. Med. Chem. 1994 37, 798-803.

| SMILES | melting point | EC50 (hepatitis B virus (HBV)) [µM] | IC50 (B16F10 melanoma cells) [µM] | activity against these neoplastic cell lines (in words) [1] | IC50 (P388 leukemia cells) [µM] | IC50 (L1210 leukemia cells) [µM] | IC50 [2] [µM] |
| --- | --- | --- | --- | --- | --- | --- | --- |
| Nc1nc(F)cc2c1ncn2[C@@H]1O[C@H](CO)[C@@H](O)[C@H]1O [Compound 38, 4-Amino-6-fluoro-1-(β-D-ribofuranosyl)imidazo[4,5-c]pyridine] | – | – | 40 | moderate to weak activities | 50 | 35 | 100 |
| CNc1nc(F)cc2c1ncn2[C@@H]1O[C@H](CO)[C@@H](O)[C@H]1O [Compound 39, 6-Fluoro-4-methylamino-1-(β-D-ribofuranosyl)imidazo[4,5-c]pyridine] | – | – | > 100 | – | > 100 | > 100 | 100 |
| Nc1nc(F)cc2c1ncn2[C@@H]1O[C@H](CO)[C@@H](O)[C@@H]1O [Compound 43, 4-Amino-6-fluoro-1-β-D-arabinofuranosylimidazo[4,5-c]pyridine] | – | – | > 100 | – | > 100 | > 100 | > 100 |
| Nc1nc(F)cc2c1ncn2[C@H]1O[C@H](CO)[C@@H](O)[C@@H]1O [Compound 44, 4-Amino-6-fluoro-1-α-D-arabinofuranosylimidazo[4,5-c]pyridine] | 198 °C (dec.) | – | > 100 | – | > 100 | > 100 | > 100 |
| Nc1ncc(F)c2c1ncn2[C@@H]1O[C@H](CO)[C@@H](O)[C@H]1O [Compound 51, 4-Amino-7-fluoro-1-(β-D-ribofuranosyl)imidazo[4,5-c]pyridine] | – | 9.2 | 45 | moderate to weak activities | 100 | 15 | 60 |
| Nc1ncc(Cl)c2c1ncn2[C@@H]1O[C@H](CO)[C@@H](O)[C@H]1O [Compound 52, 4-Amino-7-chloro-1-(β-D-ribofuranosyl)imidazo[4,5-c]pyridine] | 169 °C (dec.) | – | > 100 | – | > 100 | > 100 | > 100 |
| Nc1[nH]c(=O)c2ncn([C@@H]3O[C@H](CO)[C@@H](O)[C@H]3O)c2c1Cl [Compound 61, 6-Amino-7-chloro-1,5-dihydro-1-β-D-ribofuranosylimidazo[4,5-c]pyridin-4-one] | – | – | 35 | – | 40 | 12 | 30 |
| Nc1[nH]c(=O)c2ncn([C@@H]3O[C@H](CO)[C@@H](O)[C@H]3O)c2c1Br [Compound 62, 6-Amino-7-bromo-1,5-dihydro-1-β-D-ribofuranosylimidazo[4,5-c]pyridin-4-one] | – | – | 7 | – | 7 | 3 | 9 |

Second part, led by results:

| melting point | EC50 (hepatitis B virus (HBV)) [µM] | SMILES | IC50 (B16F10 melanoma cells) [µM] | activity against these neoplastic cell lines (in words) [1] | IC50 (P388 leukemia cells) [µM] | IC50 (L1210 leukemia cells) [µM] | IC50 [2] [µM] |
| --- | --- | --- | --- | --- | --- | --- | --- |
| 163 to 165 °C | – | Nc1nc(F)c(F)c2c1ncn2[C@@H]1O[C@H](CO)[C@@H](O)[C@H]1O [Compound 57, 4-Amino-6,7-difluoro-1-(β-D-ribofuranosyl)imidazo[4,5-c]pyridine] | 100 | moderate to weak activities | 90 | 90 | 40 |
| 155 to 157 °C | ≥ 10 | Nc1nc(F)c(F)c2ncn([C@@H]3O[C@H](CO)[C@@H](O)[C@H]3O)c12 [Compound 58, 4-Amino-6,7-difluoro-3-(β-D-ribofuranosyl)imidazo[4,5-c]pyridine] | > 100 | – | > 100 | > 100 | > 100 |
| 175 to 177 °C | 7.5 | Nc1nc(F)c(Cl)c2c1ncn2[C@@H]1O[C@H](CO)[C@@H](O)[C@H]1O [Compound 59, 4-Amino-7-chloro-6-fluoro-1-(β-D-ribofuranosyl)imidazo[4,5-c]pyridine] | 100 | moderate to weak activities | 90 | 55 | 60 |
| 166 to 168 °C | – | Nc1nc(F)c(Cl)c2ncn([C@@H]3O[C@H](CO)[C@@H](O)[C@H]3O)c12 [Compound 60, 4-Amino-7-chloro-6-fluoro-3-(β-D-ribofuranosyl)imidazo[4,5-c]pyridine] | > 100 | – | > 100 | > 100 | > 100 |
